Some test systems named below: 786-0 renal; CAKI-1 renal; COLO 205 colon; HOP-62 NSCLC; HS 578T breast; K-562 leukemia; NCI-H460 lung; OVCAR-3 ovarian; OVCAR-5 ovarian; PC-3 prostate; RPMI-8226 leukemia; SF-268 CNS; SN12C renal; SNB-19 CNS; U251 CNS; SF-539 CNS; SK-OV-3 ovarian.
Holding throughout (experiment): DTP human tumour cell line panel, 48 h

“And” between values parts separate entries of the source, which are not always exact repeats. Equal entries are not always repeated.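 All cell lines were grown in 96-well plates and treated with compound for 48 hours. The concentration for 50% growth inhibition is given as GI50. TGI: concentration producing complete growth inhibition.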

As a reminder, the TGI is the concentration giving total growth inhibition. Low readings indicate greater sensitivity of the cells, high ones lower sensitivity of the cells. What is called GI50 is the concentration that inhibits growth by half.

With `COc1cc(NS(C)(=O)=O)ccc1Nc1cc[nH]c2ccc3nccc3c12`, the TGI is 27.7 µM in the assay with 786-0 renal; 32.5 µM in the assay on CAKI-1 renal; 41.4 µM with COLO 205 colon; 30.6 µM with HOP-62 NSCLC; > 100 µM in the assay with HS 578T breast; 25.7 µM with K-562 leukemia. Further, the TGI with NCI-H460 lung came out at 34.5 µM; in the assay with OVCAR-3 ovarian, 29.4 µM; in the assay on OVCAR-5 ovarian, 30.8 µM; with PC-3 prostate, 26 µM; in the assay on RPMI-8226 leukemia it was 31.7 µM; with SF-268 CNS, 25 µM. Further, the TGI came out at 28.2 µM in the assay on SN12C renal, 29.9 µM in the assay on SNB-19 CNS and 27.3 µM with U251 CNS.

For `O=c1[nH]c(=O)n(COCc2ccccc2)c2ccsc12`, the TGI with 786-0 renal, in the assay on CAKI-1 renal, in the assay on COLO 205 colon, in the assay on HOP-62 NSCLC, in the assay with HS 578T breast and in the assay on K-562 leukemia was > 100 µM throughout. Further, the TGI in the assay on NCI-H460 lung, with OVCAR-5 ovarian, with PC-3 prostate, in the assay with RPMI-8226 leukemia, with SF-268 CNS and in the assay on SF-539 CNS was > 100 µM each time. The TGI with SN12C renal, in the assay with SNB-19 CNS and in the assay on U251 CNS was > 100 µM each time.

With `COC(=O)C1CCC(=O)N1CN(C(C)=O)c1ccccc1Cl` (configuration not stated), the TGI in the assay with 786-0 renal, with CAKI-1 renal, in the assay with COLO 205 colon, in the assay with HOP-62 NSCLC, in the assay on HS 578T breast and in the assay with NCI-H460 lung was > 100 µM in each case. Further, the concentration for total growth inhibition (TGI) in the assay with OVCAR-3 ovarian, in the assay with OVCAR-5 ovarian, in the assay with PC-3 prostate, with RPMI-8226 leukemia, in the assay with SF-268 CNS and with SF-539 CNS was > 100 µM each time. Also, the concentration for total growth inhibition (TGI) with SK-OV-3 ovarian, with SN12C renal, in the assay on SNB-19 CNS and in the assay with U251 CNS was > 100 µM throughout.

Regarding `CC(=O)O[C@H]1C(=O)[C@@]2(C)[C@H]([C@H](OC(=O)c3cccc([N+](=O)[O-])c3)[C@]3(O)C[C@H](OC(=O)[C@H](O)[C@@H](NC(=O)c4ccccc4)c4ccccc4)C(C)=C1C3(C)C)[C@]1(OC(C)=O)CO[C@@H]1C[C@@H]2O`, the concentration for total growth inhibition (TGI) in the assay with 786-0 renal is > 25 µM; in the assay on CAKI-1 renal, > 25 µM; in the assay on HOP-62 NSCLC, > 25 µM; in the assay on HS 578T breast it was 0.00761 µM; in the assay on NCI-H460 lung, > 25 µM; in the assay with OVCAR-3 ovarian, 0.0183 µM. Moreover, the TGI in the assay on OVCAR-5 ovarian is 16.4 µM; with PC-3 prostate it was > 25 µM; in the assay with RPMI-8226 leukemia, 18.1 µM; with SF-268 CNS, > 25 µM; in the assay with SF-539 CNS, 0.00254 µM; in the assay with SK-OV-3 ovarian, > 25 µM. The TGI in the assay on SN12C renal and with SNB-19 CNS was > 25 µM throughout.

On to `O=C(O)CN1C=C(C(=O)c2cc3ccccc3n2S(=O)(=O)c2ccccc2)CCC1`, for which the TGI with 786-0 renal was > 100 µM; in the assay on CAKI-1 renal it was > 100 µM; in the assay on COLO 205 colon it was 42.5 µM; in the assay with HOP-62 NSCLC it was > 100 µM; in the assay on HS 578T breast it was > 100 µM; in the assay with K-562 leukemia, > 100 µM. The TGI in the assay with NCI-H460 lung, in the assay on OVCAR-3 ovarian, in the assay with OVCAR-5 ovarian, with PC-3 prostate, in the assay on SF-268 CNS and with SF-539 CNS was > 100 µM throughout. Also, the total growth inhibition concentration (TGI) with SNB-19 CNS and in the assay with U251 CNS was > 100 µM throughout.

Regarding `CCc1n[nH]c(=O)n1/N=C/c1ccccc1O`, the TGI in the assay on 786-0 renal was > 100 µM; with COLO 205 colon, > 100 µM; with HOP-62 NSCLC, > 100 µM; with HS 578T breast it was 99 µM; in the assay on K-562 leukemia, > 100 µM; with OVCAR-3 ovarian, > 100 µM. In addition, the TGI with OVCAR-5 ovarian, with PC-3 prostate, with RPMI-8226 leukemia, in the assay with SF-268 CNS, in the assay with SF-539 CNS and in the assay on SK-OV-3 ovarian was > 100 µM each time. Moreover, the concentration for total growth inhibition (TGI) with SN12C renal, in the assay with SNB-19 CNS and in the assay with U251 CNS was > 100 µM in each case.

On to `O=[N+]([O-])c1cccc2nc3ccccc3c(NCCCn3ccnc3[N+](=O)[O-])c12`, for which the TGI with 786-0 renal was 0.0137 µM; with CAKI-1 renal, 0.0816 µM and 0.188 µM; in the assay on HOP-62 NSCLC, 0.143 µM; in the assay on HS 578T breast it was 0.0899 µM and 0.0415 µM; in the assay on NCI-H460 lung, 0.0137 µM; in the assay on OVCAR-3 ovarian it was 0.0178 µM and 0.0633 µM. Also, the TGI was 0.0236 µM in the assay with PC-3 prostate; 0.000419 µM in the assay on RPMI-8226 leukemia; 0.0218 µM and 0.055 µM with SF-539 CNS; 0.111 µM in the assay with SK-OV-3 ovarian; 0.0722 µM and 0.0198 µM in the assay on SN12C renal; 0.0153 µM in the assay on SNB-19 CNS. The molecule also returned a TGI in the assay with U251 CNS of 0.00178 µM. Besides, the GI50 was 0.0109 µM with HS 578T breast, 0.0122 µM in the assay on OVCAR-3 ovarian and 0.0109 µM with OVCAR-5 ovarian.

As to `CC#CC(O)(C(=O)OCCCN(C)C)C1CCCCC1` (configuration not stated), the total growth inhibition concentration (TGI) with 786-0 renal, with COLO 205 colon, in the assay with HOP-62 NSCLC, in the assay with HS 578T breast, in the assay on K-562 leukemia and in the assay on NCI-H460 lung was > 100 µM each time. The TGI with OVCAR-3 ovarian, with OVCAR-5 ovarian, in the assay on PC-3 prostate, in the assay with RPMI-8226 leukemia, with SF-268 CNS and in the assay on SF-539 CNS was > 100 µM throughout. In addition, the TGI with SK-OV-3 ovarian, in the assay on SN12C renal, with SNB-19 CNS and in the assay on U251 CNS was > 100 µM in each case.

`NC(Cc1ccc(OCc2ccccc2)cn1)C(=O)O` (configuration not stated): the TGI with 786-0 renal, in the assay with CAKI-1 renal, in the assay on COLO 205 colon, in the assay on HOP-62 NSCLC, in the assay with HS 578T breast and with K-562 leukemia was > 100 µM each time. In addition, the TGI in the assay with NCI-H460 lung, with OVCAR-3 ovarian, in the assay on OVCAR-5 ovarian, with PC-3 prostate, in the assay on RPMI-8226 leukemia and in the assay on SF-268 CNS was > 100 µM in each case. Moreover, the TGI in the assay on SF-539 CNS, in the assay on SN12C renal, in the assay on SNB-19 CNS and with U251 CNS was > 100 µM throughout.

The values are drawn from PubChem BioAssay (NCI).
